# From US7504362B2, “Pesticidal compositions” (Merial Limited, priority 2002, dated 2009)
# System: Ctenocephalides felis, Diabrotica undecimpunctata, Nephotettix cincticeps or Rhipicephalus sanguineus
# Experiment: Pooled statement: active in one or more of the above tests (Methods A to E)
# Type: in vivo
# Details: active = reaching the threshold of Method A, B, C, D or E; test not given per compound
# Procedure: The following representative test procedures, using compounds of the invention, were conducted to determine the parasiticidal and pesticidal activity of compounds of the invention.
# A test container was filled with 10 adults of Ctenocephalides felis. A glass cylinder was closed on one end with parafilm and placed on top of the test container. The test compound solution was then pipetted into bovine blood and added to the glass cylinder. The treated Ctenocephalides felis were held in this artificial dog test (blood 37° C., 40-60% relative humidity; Ctenocephalides felis 20-22° C., 40-60% relative humidity) and assessment performed at 24 and 48 hours after application. Active compounds gave at least 90% control of Ctenocephalides felis at a test concentration of 5 ppm or less.
# Two days before application, seeds of maize were soaked in water under warm conditions to elicit fast germination. One day before application, eggs of Diabrotica undecimpunctata were transferred to one half of a Japanese filter paper placed in a plastic petri dish. Afterwards, a sprouted maize seed was placed on a moistened pad beside the filter paper. Three drops of 200 microliters of test compound solution were carefully pipetted onto the egg. The remainder of the solution was placed on the maize and then the Petri dish was closed. The treated eggs in the Petri dishes were held in a climate chamber for 6 days. The compound efficacy (percentage of dead eggs and/or larvae in comparison to untreated control) was assessed 6 days after application using a binocular microscope.
# Active compounds gave at least 90% control of Diabrotica undecimpunctata at a test concentration of 10 ppm.
# The leaves of 12 rice plants having a stem length of 8 cm were dipped for 5 seconds into an aqueous solution of the formulated test compound. After the solution had run off, the rice plants treated in this manner were placed in a Petri dish and populated with about 20 larvae (L3 stage) of Nephotettix cincticeps. The Petri dish was closed and then stored in a climate chamber (16 hours of light/day, 25° C., 40-60% relative humidity). After 6 days storage, the percentage mortality of leafhopper larvae was determined.
# Active compounds gave at least 98% mortality of Nephotettix cinciceps larvae at a test concentration of 100 ppm.
# Solutions of the test compounds were dropped onto filter paper, dried and the filter paper placed into test tubes and infested with 10 adults of Ctenocephalides felis. The treated Ctenocephalides felis were held in a climate chamber (26° C., 80% RH) and the percentage efficacy assessed 24 hours and 48 hours after application in comparison with the untreated control.
# Active compounds gave at least 70% contact control of Ctenocephalides felis at a test concentration of 1000 ppm.
# Solutions of the test compounds were dropped onto filter paper, dried and the filter paper placed into test tubes and infested with 20-30 larvae (L1) of Rhipicephalus sanguineus and the tubes closed with a clip. The treated Rhipicephalus sanguineus were held in a climate chamber (25° C., 90% RH) and the percentage efficacy assessed 24 hours after application in comparison with the untreated control. Active compounds gave at least 70% contact control of Rhipicephalus sanguineus at a test concentration of 100 ppm.
row,Structure (SMILES),active in one or more of the above tests
1,CN(c1c(S(=O)(=O)C(F)(F)F)c(C#N)nn1-c1c(Cl)cc(C(F)(F)F)cc1Cl)S(=O)(=O)Cc1ccc(C(F)(F)F)cc1 [Compound 2-128],active
2,CN(c1c(S(=O)(=O)C(F)(F)F)c(C#N)nn1-c1c(Cl)cc(C(F)(F)F)cc1Cl)S(=O)(=O)Cc1cc(C(F)(F)F)cc(C(F)(F)F)c1 [Compound 2-129],active
3,Cc1ccc(CS(=O)(=O)N(C)c2c(S(=O)(=O)C(F)(F)F)c(C#N)nn2-c2c(Cl)cc(C(F)(F)F)cc2Cl)cc1 [Compound 2-144],active
4,CCCCCc1ccc(CS(=O)(=O)N(C)c2c(SC(F)(F)F)c(C#N)nn2-c2c(Cl)cc(C(F)(F)F)cc2Cl)cc1 [Compound 2-148],active
5,CN(c1c(SC(F)(F)F)c(C#N)nn1-c1c(Cl)cc(C(F)(F)F)cc1Cl)S(=O)(=O)Cc1cc(Cl)cc(Cl)c1 [Compound 2-149],active
6,CN(c1c([S+]([O-])C(F)(F)F)c(C#N)nn1-c1c(Cl)cc(C(F)(F)F)cc1Cl)S(=O)(=O)Cc1cc(Cl)cc(Cl)c1 (stereo not drawn) [Compound 2-150],active
7,CN(c1c(S(=O)(=O)C(F)(F)F)c(C#N)nn1-c1c(Cl)cc(C(F)(F)F)cc1Cl)S(=O)(=O)Cc1cc(Cl)cc(Cl)c1 [Compound 2-151],active
8,CN(c1c(SC(F)(F)F)c(C#N)nn1-c1c(Cl)cc(C(F)(F)F)cc1Cl)S(=O)(=O)Cc1ccc(Cl)s1 [Compound 4-32],active
9,CN(c1c(SC(F)(F)F)c(C#N)nn1-c1c(Cl)cc(C(F)(F)F)cc1Cl)S(=O)(=O)Cc1cccs1 [Compound 4-33],active
10,CN(c1c(S(=O)(=O)C(F)(F)F)c(C#N)nn1-c1c(Cl)cc(C(F)(F)F)cc1Cl)S(=O)(=O)Cc1cccs1 [Compound 4-34],active
11,CN(c1c([S+]([O-])C(F)(F)F)c(C#N)nn1-c1c(Cl)cc(C(F)(F)F)cc1Cl)S(=O)(=O)Cc1ccc(Cl)s1 (stereo not drawn) [Compound 4-35],active
12,CN(c1c(SC(F)(F)F)c(C#N)nn1-c1c(Cl)cc(C(F)(F)F)cc1Cl)S(=O)(=O)c1ccccc1Cl [Compound 5-1],active
13,CN(c1c(SC(F)(F)F)c(C#N)nn1-c1c(Cl)cc(C(F)(F)F)cc1Cl)S(=O)(=O)c1ccc(F)cc1 [Compound 5-9],active
14,CN(c1c(SC(F)(F)F)c(C#N)nn1-c1c(Cl)cc(C(F)(F)F)cc1Cl)S(=O)(=O)c1cccc(C(F)(F)F)c1 [Compound 5-15],active
15,CN(c1c(SC(F)(F)F)c(C#N)nn1-c1c(Cl)cc(C(F)(F)F)cc1Cl)S(=O)(=O)c1ccc(C(F)(F)F)cc1 [Compound 5-16],active
16,COc1ccc(S(=O)(=O)N(C)c2c(SC(F)(F)F)c(C#N)nn2-c2c(Cl)cc(C(F)(F)F)cc2Cl)cc1 [Compound 5-22],active
17,Cc1cccc(S(=O)(=O)N(C)c2c(SC(F)(F)F)c(C#N)nn2-c2c(Cl)cc(C(F)(F)F)cc2Cl)c1 [Compound 5-30],active
18,Cc1ccc(S(=O)(=O)N(C)c2c(SC(F)(F)F)c(C#N)nn2-c2c(Cl)cc(C(F)(F)F)cc2Cl)cc1 [Compound 5-32],active
19,CN(c1c(SC(F)(F)F)c(C#N)nn1-c1c(Cl)cc(C(F)(F)F)cc1Cl)S(=O)(=O)c1ccccc1 [Compound 5-36],active
20,CN(c1c(SC(F)(F)F)c(C#N)nn1-c1c(Cl)cc(C(F)(F)F)cc1Cl)S(=O)(=O)c1ccc(C(C)(C)C)cc1 [Compound 5-38],active

row,Structure (SMILES),active in one or more of the above tests
1,Cc1cc(C)c(S(=O)(=O)N(C)c2c(SC(F)(F)F)c(C#N)nn2-c2c(Cl)cc(C(F)(F)F)cc2Cl)c(C)c1 [Compound 5-40],active
2,CN(c1c(SC(F)(F)F)c(C#N)nn1-c1c(Cl)cc(C(F)(F)F)cc1Cl)S(=O)(=O)c1cc(Cl)cc(Cl)c1 [Compound 5-42],active
3,CN(c1c([S+]([O-])C(F)(F)F)c(C#N)nn1-c1c(Cl)cc(C(F)(F)F)cc1Cl)S(=O)(=O)c1ccccc1Cl (stereo not drawn) [Compound 5-46],active
4,CN(c1c([S+]([O-])C(F)(F)F)c(C#N)nn1-c1c(Cl)cc(C(F)(F)F)cc1Cl)S(=O)(=O)c1cccc(Cl)c1 (stereo not drawn) [Compound 5-47],active
5,CN(c1c([S+]([O-])C(F)(F)F)c(C#N)nn1-c1c(Cl)cc(C(F)(F)F)cc1Cl)S(=O)(=O)c1ccc(Cl)cc1 (stereo not drawn) [Compound 5-48],active
6,CN(c1c([S+]([O-])C(F)(F)F)c(C#N)nn1-c1c(Cl)cc(C(F)(F)F)cc1Cl)S(=O)(=O)c1ccc(F)cc1 (stereo not drawn) [Compound 5-54],active
7,CN(c1c([S+]([O-])C(F)(F)F)c(C#N)nn1-c1c(Cl)cc(C(F)(F)F)cc1Cl)S(=O)(=O)c1cccc(C(F)(F)F)c1 (stereo not drawn) [Compound 5-60],active
8,CN(c1c([S+]([O-])C(F)(F)F)c(C#N)nn1-c1c(Cl)cc(C(F)(F)F)cc1Cl)S(=O)(=O)c1ccc(C(F)(F)F)cc1 (stereo not drawn) [Compound 5-61],active
9,Cc1cccc(S(=O)(=O)N(C)c2c([S+]([O-])C(F)(F)F)c(C#N)nn2-c2c(Cl)cc(C(F)(F)F)cc2Cl)c1 (stereo not drawn) [Compound 5-75],active
10,Cc1ccc(S(=O)(=O)N(C)c2c([S+]([O-])C(F)(F)F)c(C#N)nn2-c2c(Cl)cc(C(F)(F)F)cc2Cl)cc1 (stereo not drawn) [Compound 5-77],active
11,CN(c1c([S+]([O-])C(F)(F)F)c(C#N)nn1-c1c(Cl)cc(C(F)(F)F)cc1Cl)S(=O)(=O)c1ccccc1 (stereo not drawn) [Compound 5-81],active
12,CN(c1c([S+]([O-])C(F)(F)F)c(C#N)nn1-c1c(Cl)cc(C(F)(F)F)cc1Cl)S(=O)(=O)c1ccc(C(C)(C)C)cc1 (stereo not drawn) [Compound 5-83],active
13,COC(=O)c1ccc(I)cc1S(=O)(=O)N(C)c1c([S+]([O-])C(F)(F)F)c(C#N)nn1-c1c(Cl)cc(C(F)(F)F)cc1Cl (stereo not drawn) [Compound 5-86],active
14,CN(c1c([S+]([O-])C(F)(F)F)c(C#N)nn1-c1c(Cl)cc(C(F)(F)F)cc1Cl)S(=O)(=O)c1cc(Cl)cc(Cl)c1 (stereo not drawn) [Compound 5-87],active
15,CN(c1c([S+]([O-])C(F)(F)F)c(C#N)nn1-c1c(Cl)cc(C(F)(F)F)cc1Cl)S(=O)(=O)c1ccc([N+](=O)[O-])cc1 (stereo not drawn) [Compound 5-88],active
16,CN(c1c([S+]([O-])C(F)(F)F)c(C#N)nn1-c1c(Cl)cc(C(F)(F)F)cc1Cl)S(=O)(=O)c1cccc2ccccc12 (stereo not drawn) [Compound 5-89],active
17,CN(c1c([S+]([O-])C(F)(F)F)c(C#N)nn1-c1c(Cl)cc(C(F)(F)F)cc1Cl)S(=O)(=O)c1ccc(-c2ccc(Cl)c(Cl)c2)cc1 (stereo not drawn) [Compound 5-150],active
18,CN(c1c([S+]([O-])C(F)(F)F)c(C#N)nn1-c1c(Cl)cc(C(F)(F)F)cc1Cl)S(=O)(=O)c1ccc(-c2ccc(F)cc2)cc1 (stereo not drawn) [Compound 5-151],active
19,CN(c1c([S+]([O-])C(F)(F)F)c(C(N)=S)nn1-c1c(Cl)cc(C(F)(F)F)cc1Cl)S(=O)(=O)Cc1ccccc1 (stereo not drawn) [Compound 7-32],active
